# Reference: patent US20130309337A1, “PROCESS FOR THE PREPARATION OF PLANT EXTRACTS FOR TREATING SKIN DISORDERS AND ENHANCING HEALING OF WOUNDS” (DEVELOPMENT CENTER FOR BIOTECHNOLOGY, priority 2007, published 2013)
# Test system: STZ-induced diabetic rats
# Test: Wound closure in STZ-induced diabetic rats (full-thickness dorsal excision wounds, topical application twice a day)
# Type: in vivo, rat
# Details: Example 6, Table 1
# Protocol: Rats with a body weight of over 300 g were administered with Streptozotocin (STZ, 65 mg/kg, i.p.) to induce high blood sugar.
# • i. The high-blood-sugar animals with a body weight of lower than 300 g were eliminated and the rest were randomized into 6 groups. • ii. The animals were anesthetized with pentobarbital and the hair on the surgical area (dorsal area) was removed. The surgical areas and instruments were then sterilized with 75% alcohol before operation. • iii. The skins on the dorsal medium areas (4, 6 and 8 cm from the midpoint of two scapula) were excised (full thickness) using a round cutting blade with a diameter of 1 cm. Measuring the Wounds, Applying Testing Materials, and Preventing the Wounds from Being Scratched • i. A standard ruler was placed beside the wounds and pictures were taken. • ii. A thin layer of the test materials formulated as ointments and 0.05 ml of CGS21680 solution were applied to each wound. • iii. The wounds were covered with gauze and hoods were worn on the rats' necks.
# Test materials were applied to the rats twice a day (morning and evening) and the wounds were measured at each time point.
# A standard ruler was placed beside the wounds when pictures were taken. The length of the wounds was standardized according to the scale of the standard ruler in the pictures before the wounds were analyzed with the image processing software Image-Pro (Media Cybernetics, Inc.) to avoid the errors caused by different picturing distances.
# The areas of the three wounds on the rats' backs were analyzed by Image-Pro. The wound areas of day zero were the original wound areas. The original wound areas minus the wound areas at different time points were divided by the original wound areas to get the wound closure percentages. The mean of the three wound closure percentages of each rat represents the wound closure of each rat. Four to seven rats per group were used for each test materials. The data was shown as mean±standard error (SEM). The p-values of the test results were calculated by t-test in statistics software sigma statis (Systat software Inc.). P<0.05 means there is a significant difference, and it is marked with * on the statistics charts or tables. P<0.01 means there is a very significant difference, and it is marked with ** on the statistics charts or tables. P<0.001 means there is an extremely significant difference, and it is marked with *** on the statistics charts or tables.
# The purpose of this example is to compare the efficacy of the composition of the present invention and that of the commercially available products on wound closures. The wound closure animal experiments were conducted according to Example 5. On day 0, 4, 6, 8, 10 and 12 after the treatments of placebo (Group 1), 1% S1 ointment (Group 2), CGS-21680 (Group 3), Regranex (Group 4), DCB-WH1-C (Group 5) and DCB-WH1-W (Group 6), the wound areas of all experimental groups were measured and the wound closure percentages and CT50 (time required for 50% wound closure) values were calculated.
# The purpose of this example is to compare the efficacy of DCB-WH1-W with that of its active ingredients in wound closures. The test materials are placebo (Group 1), 1% S1 ointment (Group 2), 0.25% PA-W4 ointment (Group 3), DCB-WH1-W (Group 4) and 1% PA-W4 ointment (Group 5). The wound closure animal experiments were conducted according to Example 5. On day 0, 4, 9, 11 and 13 after the treatment with the test materials, the wound areas of all experimental groups were measured and the wound closure percentages and CT50 were calculated.
structure (smiles),measurement,setting,value
"CCNC(=O)[C@H]1O[C@@H](n2cnc3c(N)nc(NCCc4ccc(CCC(=O)O)cc4)nc32)[C@H](O)[C@@H]1O [CGS-2168, CGS-21680]",CT50 (time required for 50% wound closure),,10.3 days
same,Wound closure percentage (%) Day 4,"day 4 after treatment, mean ± SEM, topical twice a day",−21.3 ± 4.8%
same,Wound closure percentage (%) Day 6,"day 6, mean ± SEM",−27.38 ± 3.2%
same,Wound closure percentage (%) Day 8,"day 8, mean ± SEM",−2.4 ± 4.1%
same,Wound closure percentage (%) Day 10,"day 10, mean ± SEM",46.7 ± 6.0%
same,Wound closure percentage (%) DAY 12,"day 12, mean ± SEM",71.7 ± 2.4%
